Measurements taken from patent US6649654B1, “Methods for identifying and using IKK inhibitors” (The Regents of the University of California, priority 1999, dated 2003).
Entries after “also recorded” stand apart in the source; their conditions may differ.

Legend:
JNK [1] = target: T1, JNK (Homo sapiens, UniProt P45983); assay: JNK activity in HeLa cells; assay type: cell-based; parameters: endogenous in cells; settings: even in the absence of TNFα
Procedure: (§1) Cells used in the experiments described herein were cultured in either RPMI 1640 (Jurkat cells) or DMEM (HeLa and COS cells), supplemented with 10% FBS and antibiotics. Cells were stimulated with either 25 ng/ml TPA, 20 ng/ml recombinant TNFα, or 10 ng/ml interleukin 1β (Sigma). PGA1, 15dPGJ2, T×B2, LTB4, AA and other PGs (Cayman) dissolved in ethanol were used as well, as known in the art (See e.g., Rossi et al., 94:746-750 [1997]). Controls received equal amounts of ethanol. Transfections were performed using Lipofectamine Plus (GIBCO) for HeLa and COS cells and DEAE-dextran (Sigma) for Jurkat cells. Xpress-tagged NIK, Xpress-tagged MEKK1, HA-tagged IKKα, and HA-tagged IKKβ were also used (See e.g., Zandi et al., Science 281:1360-1363 [1998]; and Delhase et al., Science 284:309-313 [1999]). COX2 and cPLA2 expression vectors were obtained from Dr. L. Feng (See also, Hirose et al., J. Am. Soc. Nephrol., 9:408-416 [1998]). PGD synthase was cloned from HT29 colon carcinoma cell line cDNA by PCR and subcloned into a pCDNA3 vector. […]
(§2) Cell lysates were incubated with anti-IKKα (Pharmingen), anti-HA (12CA5; Pharmingen), anti-JNK1 (333.8; Pharmingen), or anti-p38 (New England Biolabs) for 2 hours. […] Endogenous IKK, HA-tagged IKKα, endogenous JNK1, and p38 activities were determined with GST-1κBα(1-54), GST-c-Jun(1-79), and GST-ATF2 as substrates.

activated monocytes = settings: cited from earlier work
JNK1 = target: T2, JNK1 (Homo sapiens, UniProt P45983); assay: In vitro JNK1 kinase activity; assay type: biochemical; settings: in vitro incubation with up to 60 μM
T2 construct: Endogenous IKK, HA-tagged IKKα, endogenous JNK1, and p38 activities were determined; endogenous in cells
Procedure: Cell lysates were incubated with anti-IKKα (Pharmingen), anti-HA (12CA5; Pharmingen), anti-JNK1 (333.8; Pharmingen), or anti-p38 (New England Biolabs) for 2 hours. Then, 15 μl protein A-Sepharose (Sigma) were added and the mixture was allowed to incubate for 1 hour. After extensive washing, kinase assays were performed as known in the art (See e.g., DiDonato et al., Nature 388:548-554 [1997]). Endogenous IKK, HA-tagged IKKα, endogenous JNK1, and p38 activities were determined with GST-1κBα(1-54), GST-c-Jun(1-79), and GST-ATF2 as substrates.
Endogenous IKK was immunoprecipitated from TNFα-stimulated HeLa cells and the kinase activity determined in the presence of different concentrations of PGA1 (the results of which are shown in FIG. 2B) or 15dPGJ2 (the results of which are shown in FIG. 2C).

NF-κB = NF-κB activation by TPA in human cells expressing very low levels of PPAR-γ; assay type: cell-based; settings: human cells with very low PPAR-γ, data not shown
IκBα = IκBα degradation in stimulated Jurkat cells (immunoblot); assay type: cell-based, human; settings: TNFα or TPA
Procedure: as §1
In addition, recombinant IKKβ was expressed in Sf9 cells and purified as described (Zandi et al., supra). […] After 1.5 hours at 4° C., the immunoprecipitates were washed and the kinase activity determined. […]

IKK [2] = target: T3, IKK (Homo sapiens, UniProt O14920+O15111); assay: Endogenous IKK activity (kinase assay) in Jurkat cells stimulated with TNFα or TPA; assay type: cell-based; parameters: endogenous in cells
Procedure: as §1
(§3) Cell lysates were incubated with anti-IKKα (Pharmingen), anti-HA (12CA5; Pharmingen), anti-JNK1 (333.8; Pharmingen), or anti-p38 (New England Biolabs) for 2 hours. […] Endogenous IKK, HA-tagged IKKα, endogenous JNK1, and p38 activities were determined with GST-1κBα(1-54), GST-c-Jun(1-79), and GST-ATF2 as substrates. […]

p38 = p38 (Homo sapiens, UniProt Q16539); assay: p38 MAP kinase activation in TPA-stimulated Jurkat cells; assay type: cell-based; parameters: endogenous in cells; host or cells: Jurkat; settings: 24 μM PGA1, TPA
Procedure: as §1, §3

IKK [3] = assay: MEKK1-induced IKK activity in COS cells; assay type: cell-based; settings: data not shown
Procedure: as §1, §2

JNK [4] = target: T1, JNK; assay: JNK activation in TPA-stimulated Jurkat cells; assay type: cell-based; parameters: endogenous in cells; host or cells: Jurkat; settings: 24 μM PGA1, TPA
Procedure: as §1, §3

IKK [5] = target: T3, IKK; assay: MEKK1-induced IKK activity in Jurkat cells; assay type: cell-based; settings: data not shown
Procedure: as §1, §2

IKK [6] = assay: NIK-induced endogenous IKK activity in transfected COS cells; assay type: cell-based; settings: PGA1 added 10 min or 18 h after transfection
Procedure: as §1, §2

T3 sequence (O14920 whole entry): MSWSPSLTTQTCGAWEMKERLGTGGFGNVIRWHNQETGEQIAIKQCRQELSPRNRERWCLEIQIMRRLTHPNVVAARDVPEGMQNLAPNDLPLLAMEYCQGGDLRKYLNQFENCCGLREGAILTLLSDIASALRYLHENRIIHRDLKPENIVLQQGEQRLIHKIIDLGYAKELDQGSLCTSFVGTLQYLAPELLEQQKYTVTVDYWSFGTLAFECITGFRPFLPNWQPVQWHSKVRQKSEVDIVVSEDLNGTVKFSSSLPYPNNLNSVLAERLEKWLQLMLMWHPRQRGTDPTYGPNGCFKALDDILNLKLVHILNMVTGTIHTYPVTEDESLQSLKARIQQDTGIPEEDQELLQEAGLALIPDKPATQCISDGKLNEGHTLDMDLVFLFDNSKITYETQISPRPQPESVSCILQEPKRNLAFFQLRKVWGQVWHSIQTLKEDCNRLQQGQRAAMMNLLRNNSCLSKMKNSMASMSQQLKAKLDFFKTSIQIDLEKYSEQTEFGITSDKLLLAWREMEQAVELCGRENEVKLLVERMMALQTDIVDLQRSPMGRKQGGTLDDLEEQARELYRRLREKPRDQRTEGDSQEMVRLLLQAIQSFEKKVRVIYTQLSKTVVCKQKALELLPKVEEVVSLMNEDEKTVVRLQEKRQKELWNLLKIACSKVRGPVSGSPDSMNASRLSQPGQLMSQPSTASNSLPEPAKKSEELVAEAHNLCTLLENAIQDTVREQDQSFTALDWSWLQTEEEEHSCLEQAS
T3 sequence (O15111 whole entry): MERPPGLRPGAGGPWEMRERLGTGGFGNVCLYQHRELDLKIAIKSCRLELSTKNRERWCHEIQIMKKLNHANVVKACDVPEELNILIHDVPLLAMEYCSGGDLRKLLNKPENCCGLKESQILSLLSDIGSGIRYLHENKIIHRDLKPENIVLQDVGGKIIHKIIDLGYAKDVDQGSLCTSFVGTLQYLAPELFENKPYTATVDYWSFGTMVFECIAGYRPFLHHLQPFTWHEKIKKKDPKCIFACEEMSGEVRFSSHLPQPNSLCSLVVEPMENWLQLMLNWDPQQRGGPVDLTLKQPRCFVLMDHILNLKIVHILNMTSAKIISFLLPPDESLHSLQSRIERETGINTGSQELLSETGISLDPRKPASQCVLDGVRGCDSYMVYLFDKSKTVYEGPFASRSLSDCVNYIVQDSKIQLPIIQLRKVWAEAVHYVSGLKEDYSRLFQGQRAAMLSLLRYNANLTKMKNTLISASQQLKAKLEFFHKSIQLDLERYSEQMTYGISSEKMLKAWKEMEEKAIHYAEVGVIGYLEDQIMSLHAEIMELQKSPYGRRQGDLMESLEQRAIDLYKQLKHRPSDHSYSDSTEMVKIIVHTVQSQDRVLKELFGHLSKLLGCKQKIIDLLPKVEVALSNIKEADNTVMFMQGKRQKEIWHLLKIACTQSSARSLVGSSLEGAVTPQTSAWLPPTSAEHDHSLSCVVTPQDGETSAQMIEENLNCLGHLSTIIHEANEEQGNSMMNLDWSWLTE
T3 sequence (Q9Y6K9 whole entry partner): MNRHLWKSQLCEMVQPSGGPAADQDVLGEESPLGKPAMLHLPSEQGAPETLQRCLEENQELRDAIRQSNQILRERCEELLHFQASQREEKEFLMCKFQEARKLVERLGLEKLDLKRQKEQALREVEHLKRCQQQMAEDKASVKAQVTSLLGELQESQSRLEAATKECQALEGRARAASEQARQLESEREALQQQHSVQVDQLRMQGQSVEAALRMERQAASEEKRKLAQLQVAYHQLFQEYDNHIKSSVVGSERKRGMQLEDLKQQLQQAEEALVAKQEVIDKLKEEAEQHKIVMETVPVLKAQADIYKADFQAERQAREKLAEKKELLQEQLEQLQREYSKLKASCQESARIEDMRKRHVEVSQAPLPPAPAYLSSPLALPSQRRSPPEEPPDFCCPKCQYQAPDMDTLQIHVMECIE
T1 sequence (P45983 whole entry): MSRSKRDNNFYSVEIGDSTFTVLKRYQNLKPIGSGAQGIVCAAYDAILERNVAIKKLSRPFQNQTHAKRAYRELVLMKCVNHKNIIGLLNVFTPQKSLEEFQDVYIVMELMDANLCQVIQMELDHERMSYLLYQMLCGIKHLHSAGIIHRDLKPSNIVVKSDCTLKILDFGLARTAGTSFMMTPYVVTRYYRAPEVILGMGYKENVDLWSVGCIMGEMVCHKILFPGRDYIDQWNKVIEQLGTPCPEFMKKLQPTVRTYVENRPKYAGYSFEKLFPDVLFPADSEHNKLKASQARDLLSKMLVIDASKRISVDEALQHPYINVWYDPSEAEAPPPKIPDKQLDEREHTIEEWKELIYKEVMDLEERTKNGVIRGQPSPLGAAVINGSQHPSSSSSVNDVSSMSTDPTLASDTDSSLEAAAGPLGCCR
Chain of p38 (Q16539 whole entry): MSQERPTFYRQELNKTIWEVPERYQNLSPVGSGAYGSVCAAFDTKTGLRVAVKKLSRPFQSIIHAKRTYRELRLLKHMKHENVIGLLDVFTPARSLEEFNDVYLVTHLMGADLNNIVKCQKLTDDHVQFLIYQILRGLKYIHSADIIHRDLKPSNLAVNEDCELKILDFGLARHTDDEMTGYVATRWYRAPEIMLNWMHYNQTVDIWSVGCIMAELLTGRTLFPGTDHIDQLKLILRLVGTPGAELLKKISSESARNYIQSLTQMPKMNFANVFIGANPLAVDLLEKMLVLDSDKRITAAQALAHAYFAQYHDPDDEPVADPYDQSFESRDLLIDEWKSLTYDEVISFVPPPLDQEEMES
T2 sequence (P45983 whole entry): as the sequence (P45983 whole entry) above

## CCCCC/C=C/C=C1/C(=O)C=C[C@@H]1C/C=C\CCCC(=O)O [15dPGJ2, 15-deoxy-Δ^12-14-PGJ2]
JNK [1]
  effect on JNK activity: stimulated
Activated monocytes
  production of pro-inflammatory cytokines: inhibits
JNK1
  inhibition of JNK1 activity in vitro: No significant inhibition
NF-κB
  inhibition of NF-κB activation by TPA: potent inhibitor

## CCCCC[C@H](O)/C=C/[C@H]1C=CC(=O)C1CCCCCCC(=O)O (stereo partly drawn) [PGA1, prostaglandin A1]
IκBα
  effect on IκBα degradation: prevent IκBα degradation; also recorded: prevented
IKK [2]; 24 μM PGA1 2 hours, TNFα or TPA
  effect on IKK activity: inhibit IKK activity; also recorded: inhibited
IKK [2]; 15-min exposure, TPA 15 minutes
  effect on IKK activity after 15 minute exposure: partially inhibit
p38
  effect on activation of p38 MAP kinase: did not inhibit
IKK [3]
  effect on MEKK1-induced IKK activity: inhibited
JNK [4]
  effect on activation of JNK: did not inhibit
IKK [5]
  effect on MEKK1-induced IKK activity: inhibited
IKK [6]
  effect on NIK-induced activation of endogenous IKK activity: inhibited; also recorded: prevents
